Experimental data published in US8940909B2, “Indicator platform” (Biosynth AG, priority 2009, dated 2015).

What was measured:
Assay in all cases: IO staining of colonies of beta-D-galactosidase positive/negative bacteria (Table IVb)
Type in all cases: cell-based
[1] = system: Enterobacter aerogenes 242; settings: Enterobacter aerogenes strain 242, b-gal +; 24 h on Nutrient Agar, 150 mg/l indicator, 100 mg/l IPTG; on C: Color of colonies: key: −: absent; +/−: weak; +: strong; ++: very strong; on G: Growth of colonies: key: −: absent; +/−: weak; +: strong; ++: very strong
[2] = system: Shigella dysenteriae Serovar 1 131; settings: Shigella dysenteriae Serovar 1 strain 131, b-gal +/−; 24 h on Nutrient Agar, 150 mg/l indicator, 100 mg/l IPTG
[3] = system: Yersinia enterocolitica 175; settings: Yersinia enterocolitica strain 175, b-gal +/−; 24 h on Nutrient Agar, 150 mg/l indicator, 100 mg/l IPTG; on G: Growth of colonies: key: −: absent; +/−: weak; +: strong; ++: very strong
Serratia marcescens 40 = settings: Serratia marcescens strain 40, b-gal +; 24 h on Nutrient Agar, 150 mg/l indicator, 100 mg/l IPTG
[4] = system: Salmonella enteritidis 43; settings: Salmonella enteritidis strain 43, b-gal −; 24 h on Nutrient Agar, 150 mg/l indicator, 100 mg/l IPTG; further: key: −: absent; +/−: weak; +: strong; ++: very strong
Escherichia coli 270 = settings: Escherichia coli strain 270, b-gal +; 24 h on Nutrient Agar, 150 mg/l indicator, 100 mg/l IPTG
Shigella sonnei 133 = settings: Shigella sonnei strain 133, b-gal +/−; 24 h on Nutrient Agar, 150 mg/l indicator, 100 mg/l IPTG
Escherichia coli 61 = settings: Escherichia coli strain 61, b-gal +; 24 h on Nutrient Agar, 150 mg/l indicator, 100 mg/l IPTG
Aeromonas hydrophila 292 = settings: Aeromonas hydrophila strain 292, b-gal +; 24 h on Nutrient Agar, 150 mg/l indicator, 100 mg/l IPTG
[5] = system: Klebsiella pneumoniae 164; settings: Klebsiella pneumoniae strain 164, b-gal +; 24 h on Nutrient Agar, 150 mg/l indicator, 100 mg/l IPTG; on C: Color of colonies: key: −: absent; +/−: weak; +: strong; ++: very strong; on G: Growth of colonies: key: −: absent; +/−: weak; +: strong; ++: very strong
[6] = system: Staphylococcus intermedius 31; settings: Staphylococcus intermedius strain 31, b-gal +; 24 h on Nutrient Agar, 150 mg/l indicator, 100 mg/l IPTG
[7] = system: Listeria monocytogenes (4b) 290; settings: Listeria monocytogenes (4b) strain 290, b-gal −; 24 h on Nutrient Agar, 150 mg/l indicator, 100 mg/l IPTG; on C: Color of colonies: key: −: absent; +/−: weak; +: strong; ++: very strong; on F: Fluorescence of colonies: key: −: absent; +/−: weak; +: strong; ++: very strong
Salmonella illa 73 = settings: Salmonella illa strain 73, b-gal +; 24 h on Nutrient Agar, 150 mg/l indicator, 100 mg/l IPTG
[8] = system: Streptococcus agalactiae 195; settings: Streptococcus agalactiae strain 195, b-gal −; 24 h on Nutrient Agar, 150 mg/l indicator, 100 mg/l IPTG; on C: Color of colonies: key: −: absent; +/−: weak; +: strong; ++: very strong; on F: Fluorescence of colonies: key: −: absent; +/−: weak; +: strong; ++: very strong
Staphylococcus aureus 2 = settings: Staphylococcus aureus strain 2, b-gal −, 24 h on Nutrient Agar, 150 mg/l indicator, 100 mg/l IPTG; for C: Color of colonies: footnote 2: S. aureus natural color
[9] = system: Staphylococcus saprophyticus 273; settings: Staphylococcus saprophyticus strain 273, b-gal +; 24 h on Nutrient Agar, 150 mg/l indicator, 100 mg/l IPTG; on G: Growth of colonies: key: −: absent; +/−: weak; +: strong; ++: very strong
Citrobacter freundii 181 = settings: Citrobacter freundii strain 181, b-gal +; 24 h on Nutrient Agar, 150 mg/l indicator, 100 mg/l IPTG
[10] = system: Escherichia coli (O157:H7) 60; settings: Escherichia coli (O157:H7) strain 60, b-gal +; 24 h on Nutrient Agar, 150 mg/l indicator, 100 mg/l IPTG
Bacillus subtilis 65 = settings: Bacillus subtilis strain 65, b-gal −; 24 h on Nutrient Agar, 150 mg/l indicator, 100 mg/l IPTG
Enterobacter cloacae 245 = settings: Enterobacter cloacae strain 245, b-gal +; 24 h on Nutrient Agar, 150 mg/l indicator, 100 mg/l IPTG
Salmonella bongori 81 = settings: Salmonella bongori strain 81, b-gal +; 24 h on Nutrient Agar, 150 mg/l indicator, 100 mg/l IPTG

Compound: COc1ccc(C(=O)c2ccccc2-n2cc(O[C@@H]3O[C@H](CO)[C@H](O)[C@H](O)[C@H]3O)c3c(Cl)c(Br)ccc32)c(OC)c1 [Indicator I28a, 5-Bromo-4-chloro-1-[2-(2,4-dimethoxybenzoyl)phenyl]-1H-indol-3-yl-beta-D-galactopyranoside]
- C: Color of colonies [1]: +
- F: Fluorescence of colonies [1]: +/−
- G: Growth of colonies [1]: +
- C: Color of colonies [2]: −
- F: Fluorescence of colonies [2]: −
- G: Growth of colonies [2]: +
- C: Color of colonies [3]: −
- F: Fluorescence of colonies [3]: −
- G: Growth of colonies [3]: +
- C: Color of colonies (Serratia marcescens 40): +/−
- F: Fluorescence of colonies (Serratia marcescens 40): −
- G: Growth of colonies (Serratia marcescens 40): +
- C: Color of colonies [4]: −
- F: Fluorescence of colonies [4]: −
- G: Growth of colonies [4]: +
- C: Color of colonies (Escherichia coli 270): ++
- F: Fluorescence of colonies (Escherichia coli 270): +/−
- G: Growth of colonies (Escherichia coli 270): +
- C: Color of colonies (Shigella sonnei 133): +
- F: Fluorescence of colonies (Shigella sonnei 133): +/−
- G: Growth of colonies (Shigella sonnei 133): +
- C: Color of colonies (Escherichia coli 61): +
- F: Fluorescence of colonies (Escherichia coli 61): +/−
- G: Growth of colonies (Escherichia coli 61): +
- C: Color of colonies (Aeromonas hydrophila 292): +/−
- F: Fluorescence of colonies (Aeromonas hydrophila 292): −
- G: Growth of colonies (Aeromonas hydrophila 292): +
- C: Color of colonies [5]: +
- F: Fluorescence of colonies [5]: +/−
- G: Growth of colonies [5]: +
- C: Color of colonies [6]: +
- F: Fluorescence of colonies [6]: +/−
- G: Growth of colonies [6]: +
- C: Color of colonies [7]: −
- F: Fluorescence of colonies [7]: −
- G: Growth of colonies [7]: +/−
- C: Color of colonies (Salmonella illa 73): −
- F: Fluorescence of colonies (Salmonella illa 73): −
- G: Growth of colonies (Salmonella illa 73): +
- C: Color of colonies [8]: −
- F: Fluorescence of colonies [8]: −
- G: Growth of colonies [8]: +/−
- F: Fluorescence of colonies (Staphylococcus aureus 2): −
- G: Growth of colonies (Staphylococcus aureus 2): +/−
- C: Color of colonies (Staphylococcus aureus 2): −
- C: Color of colonies [9]: +/−
- F: Fluorescence of colonies [9]: −
- G: Growth of colonies [9]: +
- C: Color of colonies (Citrobacter freundii 181): +
- F: Fluorescence of colonies (Citrobacter freundii 181): +/−
- G: Growth of colonies (Citrobacter freundii 181): +
- C: Color of colonies [10]: +
- F: Fluorescence of colonies [10]: +/−
- G: Growth of colonies [10]: +
- C: Color of colonies (Bacillus subtilis 65): −
- F: Fluorescence of colonies (Bacillus subtilis 65): −
- G: Growth of colonies (Bacillus subtilis 65): +/−
- C: Color of colonies (Enterobacter cloacae 245): +
- F: Fluorescence of colonies (Enterobacter cloacae 245): +/−
- G: Growth of colonies (Enterobacter cloacae 245): +
- C: Color of colonies (Salmonella bongori 81): +/−
- F: Fluorescence of colonies (Salmonella bongori 81): −
- G: Growth of colonies (Salmonella bongori 81): +

Compound: 5-Bromo-4-chloro-1H-indol-3-yl-beta-D-galactopyranoside [Indicator I4a, reference compound]
- C: Color of colonies [1]: ++
- F: Fluorescence of colonies [1]: −
- G: Growth of colonies [1]: +
- C: Color of colonies [2]: −
- F: Fluorescence of colonies [2]: −
- G: Growth of colonies [2]: +
- C: Color of colonies [3]: −
- F: Fluorescence of colonies [3]: −
- G: Growth of colonies [3]: +
- C: Color of colonies (Serratia marcescens 40): +
- F: Fluorescence of colonies (Serratia marcescens 40): −
- G: Growth of colonies (Serratia marcescens 40): +
- C: Color of colonies [4]: −
- F: Fluorescence of colonies [4]: −
- G: Growth of colonies [4]: +
- C: Color of colonies (Escherichia coli 270): ++
- F: Fluorescence of colonies (Escherichia coli 270): −
- G: Growth of colonies (Escherichia coli 270): +
- C: Color of colonies (Shigella sonnei 133): +
- F: Fluorescence of colonies (Shigella sonnei 133): −
- G: Growth of colonies (Shigella sonnei 133): +
- C: Color of colonies (Escherichia coli 61): ++
- F: Fluorescence of colonies (Escherichia coli 61): −
- G: Growth of colonies (Escherichia coli 61): +
- C: Color of colonies (Aeromonas hydrophila 292): +
- F: Fluorescence of colonies (Aeromonas hydrophila 292): −
- G: Growth of colonies (Aeromonas hydrophila 292): +
- C: Color of colonies [5]: ++
- F: Fluorescence of colonies [5]: −
- G: Growth of colonies [5]: +
- C: Color of colonies [6]: +
- F: Fluorescence of colonies [6]: −
- G: Growth of colonies [6]: +
- C: Color of colonies [7]: −
- F: Fluorescence of colonies [7]: −
- G: Growth of colonies [7]: +/−
- C: Color of colonies (Salmonella illa 73): −
- F: Fluorescence of colonies (Salmonella illa 73): −
- G: Growth of colonies (Salmonella illa 73): +
- C: Color of colonies [8]: −
- F: Fluorescence of colonies [8]: −
- G: Growth of colonies [8]: +/−
- F: Fluorescence of colonies (Staphylococcus aureus 2): −
- G: Growth of colonies (Staphylococcus aureus 2): +
- C: Color of colonies (Staphylococcus aureus 2): y^2
- C: Color of colonies [9]: +
- F: Fluorescence of colonies [9]: −
- G: Growth of colonies [9]: +
- C: Color of colonies (Citrobacter freundii 181): +
- F: Fluorescence of colonies (Citrobacter freundii 181): −
- G: Growth of colonies (Citrobacter freundii 181): +
- C: Color of colonies [10]: ++
- F: Fluorescence of colonies [10]: −
- G: Growth of colonies [10]: +
- C: Color of colonies (Bacillus subtilis 65): −
- F: Fluorescence of colonies (Bacillus subtilis 65): −
- G: Growth of colonies (Bacillus subtilis 65): +
- C: Color of colonies (Enterobacter cloacae 245): ++
- F: Fluorescence of colonies (Enterobacter cloacae 245): −
- G: Growth of colonies (Enterobacter cloacae 245): +
- C: Color of colonies (Salmonella bongori 81): +/−
- F: Fluorescence of colonies (Salmonella bongori 81): −
- G: Growth of colonies (Salmonella bongori 81): +
